Source: ChEMBL document CHEMBL3580661, “Structure-Guided Design of Group I Selective p21-Activated Kinase Inhibitors” (J Med Chem, 2015)
pKi: −log10 of the molar value.

Key:
[1] = target: T1, Serine/threonine-protein kinase PAK 1 (Homo sapiens, UniProt Q13153); assay: Inhibition of human recombinant PAK1 kinase domain using coumarin/fluorescein-labeled FRET peptide as substrate assessed as substrate phosphorylation at Ser/Thr19 preincubated for 10 mins followed by ATP addition measured after 60 mins by Z'-LYTE assay
[2] = target: T2, Serine/threonine-protein kinase PAK 4 (Homo sapiens, UniProt O96013); assay: Inhibition of human recombinant PAK4 kinase domain using coumarin/fluorescein-labeled FRET peptide as substrate assessed as substrate phosphorylation at Ser/Thr19 preincubated for 10 mins followed by ATP addition measured after 60 mins by Z'-LYTE assay
[3] = Plasma clearance in rat at 2 mg/kg, iv administered as bolus dose; type: ADME, organism-based
[4] = Lipophilicity, log D of the compound at pH 7.4; type: physicochemical; conditions: buffer
[5] = Drug metabolism in rat liver S9 fraction assessed as N-acetyltransferase-mediated metabolite formation at 1 uM measured over 60 mins in presence of acetyl CoA, NADPH; type: ADME, subcellular; conditions: s9, 1 h
[6] = target: T2, Serine/threonine-protein kinase PAK 4; assay: Inhibition of human PAK4
[7] = target: T1, Serine/threonine-protein kinase PAK 1; assay: Inhibition of PAK1 (unknown origin)
[8] = Drug metabolism in rat liver S9 fraction assessed as glucuronide metabolite formation at 1 uM in presence of UDPGA; type: ADME, subcellular; conditions: s9, 1 µM
[9] = Drug metabolism in rat liver S9 fraction assessed as N-acetyltransferase-mediated metabolite formation by measuring parent compound level at 1 uM after 80 mins in presence of acetyl CoA, NADPH; type: ADME, subcellular; conditions: s9, 80 min
[10] = Drug metabolism in rat liver S9 fraction assessed as oxidative metabolite formation by measuring parent compound level at 1 uM measured over 60 mins in presence of NADPH; type: ADME, subcellular; conditions: s9, 1 h
[11] = Drug metabolism in rat liver S9 fraction assessed as N-acetyltransferase-mediated metabolite formation by measuring parent compound level at 1 uM after 60 mins in presence of acetyl CoA, NADPH; type: ADME, subcellular; conditions: s9, 1 h
[12] = test system: Liver; assay: Metabolic stability in rat liver S9 fraction at 1 uM after 60 mins in absence of NADPH; type: ADME; conditions: s9, 1 h
[13] = Metabolic stability in rat liver S9 fraction assessed as compound remaining at 1 uM measured at 60 mins in presence of NADPH; type: ADME, subcellular; conditions: read-out: Stability

T1 sequence (Q13153 whole entry, the tested form may be a part): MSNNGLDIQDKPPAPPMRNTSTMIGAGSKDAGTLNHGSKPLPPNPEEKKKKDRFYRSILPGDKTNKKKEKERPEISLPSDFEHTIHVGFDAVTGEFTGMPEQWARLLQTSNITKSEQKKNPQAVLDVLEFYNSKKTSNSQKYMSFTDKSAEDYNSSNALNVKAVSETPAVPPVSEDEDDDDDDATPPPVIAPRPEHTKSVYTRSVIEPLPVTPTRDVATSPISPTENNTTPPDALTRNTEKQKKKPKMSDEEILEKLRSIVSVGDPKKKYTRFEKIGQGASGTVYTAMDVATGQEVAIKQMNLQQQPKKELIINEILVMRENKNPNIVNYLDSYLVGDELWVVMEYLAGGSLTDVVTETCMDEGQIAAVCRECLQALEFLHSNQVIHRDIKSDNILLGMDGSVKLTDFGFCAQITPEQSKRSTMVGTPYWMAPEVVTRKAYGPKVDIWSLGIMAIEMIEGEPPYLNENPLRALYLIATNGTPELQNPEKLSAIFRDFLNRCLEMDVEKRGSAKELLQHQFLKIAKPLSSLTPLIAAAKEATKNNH
T2 sequence (O96013 whole entry, the tested form may be a part): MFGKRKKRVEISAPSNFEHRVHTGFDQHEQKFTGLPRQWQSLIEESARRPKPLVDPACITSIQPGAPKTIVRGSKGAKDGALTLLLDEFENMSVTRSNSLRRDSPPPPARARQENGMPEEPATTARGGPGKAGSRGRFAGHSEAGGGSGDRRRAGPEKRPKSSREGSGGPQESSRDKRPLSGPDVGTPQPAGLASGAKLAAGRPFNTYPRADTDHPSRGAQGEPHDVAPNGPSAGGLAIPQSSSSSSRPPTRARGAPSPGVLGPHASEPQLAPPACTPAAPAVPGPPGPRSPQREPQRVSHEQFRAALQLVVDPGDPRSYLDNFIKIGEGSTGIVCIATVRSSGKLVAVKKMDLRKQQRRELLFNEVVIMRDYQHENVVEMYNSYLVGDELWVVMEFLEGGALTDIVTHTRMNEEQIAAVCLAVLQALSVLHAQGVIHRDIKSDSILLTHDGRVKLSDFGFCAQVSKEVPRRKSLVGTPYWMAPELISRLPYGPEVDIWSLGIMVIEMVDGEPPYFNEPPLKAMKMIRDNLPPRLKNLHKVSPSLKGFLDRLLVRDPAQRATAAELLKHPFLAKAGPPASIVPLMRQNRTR

Row | Structure (SMILES) | pKi [1] | pKi [2] | further results
1 | c1cc(Nc2cc(C3CC3)[nH]n2)nc(NCc2ccc3[nH]cnc3c2)n1 | 6.93 | 6.02 | clearance [3]: 24.1 mL/min/kg; logD [4]: 2.5; Drug metabolism [5]: metabolite_notdetected
2 | CC1CCN(c2nc(Nc3cc(C4CC4)n[nH]3)c3ccccc3n2)CC1 | – | – | pKi [6]: 7.31; pKi [7]: 7.00
3 | CNc1ccc(CNc2nccc(Nc3cc(C4CC4)[nH]n3)n2)cn1 | 6.46 | 6.21 | –
4 | Nc1ccc(CNc2nccc(Nc3cc(C4CC4)[nH]n3)n2)cn1 | 6.86 | 6.25 | Drug metabolism [8]: metabolite_notdetected; Stability [9]: 50%; Stability [10]: 60%; clearance [3]: 122 mL/min/kg
5 | CCCc1cc(Nc2nc(N3CCC(N)CC3)nc3ccsc23)n[nH]1 | 7.32 | – | –
6 | NC1CCN(c2nc(Nc3cc(-c4ccccc4)[nH]n3)c3sccc3n2)CC1 | 6.18 | – | –
7 | N[C@@H]1[C@H]2CN(c3nc(Nc4cc(C5CC5)[nH]n4)c4sccc4n3)C[C@@H]12 | – | – | pKi [6]: 8.70; pKi [7]: 7.30

Second part, led by results:

Row | pKi [1] | pKi [2] | Structure (SMILES) | further results
8 | 7.68 | 8.40 | N[C@H]1CC[C@@H](CNc2nccc(Nc3cc(C4CC4)[nH]n3)n2)CC1 | –
9 | 5.36 | 5.74 | NC1CCN(c2cc(Nc3cc(C4CC4)[nH]n3)ccn2)CC1 | –
10 | 5.72 | – | C[C@@H](Nc1nccc(Nc2cc(C3CC3)[nH]n2)n1)c1ccc2[nH]ccc2c1 | –
11 | 7.57 | 6.84 | c1cc(Nc2cc(C3CC3)[nH]n2)nc(NCc2ccc3[nH]ccc3c2)n1 | clearance [3]: 30.1 mL/min/kg; logD [4]: 3
12 | 6.25 | 6.21 | NC1CCN(c2cccc(Nc3cc(C4CC4)[nH]n3)n2)CC1 | –
13 | 7.74 | – | NC1CCN(c2nc(Nc3cc(C4CCC4)[nH]n3)c3sccc3n2)CC1 | –
14 | 6.61 | 7.10 | c1cc(Nc2cc(C3CC3)[nH]n2)nc(NCC2CCNCC2)n1 | –
15 | 7.66 | 7.92 | NC1CCN(c2nc(Nc3cc(C4CC4)[nH]n3)c3sccc3n2)CC1 | Stability [11]: < 1%; Stability [12]: Stable; remaining at 1 h, 1 µM [13]: 51%
